Source: the NIST ThermoML archive (doi:10.1021/je900903w)
Numbers after ± are expanded uncertainties.

Assay: mn = molality of the nth substance listed, in mol/kg
Settings: 101 kPa, Liquid; for molar conductivity: Alternating current cell with electrodes

O=C[O-].[K+] [potassium formate] + O
Settings	mass density, 298.15 K [kg/m3]	molar conductivity, 278.15 K [S·m2/mol]	molar conductivity, 283.15 K [S·m2/mol]	molar conductivity, 288.15 K [S·m2/mol]	molar conductivity, 293.15 K [S·m2/mol]	molar conductivity, 298.15 K [S·m2/mol]	molar conductivity, 303.15 K [S·m2/mol]	molar conductivity, 308.15 K [S·m2/mol]	molar conductivity, 313.15 K [S·m2/mol]
m1 = 0.0003498	–	0.007906 ± 3.2e-05	0.009019 ± 3.6e-05	0.01018 ± 4.1e-05	0.01138 ± 4.6e-05	0.0126 ± 5e-05	0.01387 ± 5.5e-05	0.01516 ± 6.1e-05	0.01649 ± 6.6e-05
m1 = 0.0006599	–	0.007826 ± 3.1e-05	0.008931 ± 3.6e-05	0.01008 ± 4e-05	0.01128 ± 4.5e-05	0.01251 ± 5e-05	0.01377 ± 5.5e-05	0.01502 ± 6e-05	0.01632 ± 6.5e-05
m1 = 0.001026	–	0.007789 ± 3.1e-05	0.008888 ± 3.6e-05	0.01003 ± 4e-05	0.01121 ± 4.5e-05	0.01245 ± 5e-05	0.01371 ± 5.5e-05	0.015 ± 6e-05	0.01628 ± 6.5e-05
m1 = 0.001412	–	0.007752 ± 3.1e-05	0.008844 ± 3.5e-05	0.009984 ± 4e-05	0.01117 ± 4.5e-05	0.01239 ± 5e-05	0.01365 ± 5.5e-05	0.01494 ± 6e-05	0.01622 ± 6.5e-05
m1 = 0.001766	–	0.007701 ± 3.1e-05	0.008787 ± 3.5e-05	0.009919 ± 4e-05	0.0111 ± 4.4e-05	0.01231 ± 4.9e-05	0.01356 ± 5.4e-05	0.01485 ± 5.9e-05	0.01614 ± 6.5e-05
m1 = 0.002217	–	0.007674 ± 3.1e-05	0.008755 ± 3.5e-05	0.009886 ± 4e-05	0.01106 ± 4.4e-05	0.01226 ± 4.9e-05	0.01351 ± 5.4e-05	0.0148 ± 5.9e-05	0.01608 ± 6.4e-05
m1 = 0.002823	–	0.007653 ± 3.1e-05	0.008729 ± 3.5e-05	0.009852 ± 3.9e-05	0.01102 ± 4.4e-05	0.01223 ± 4.9e-05	0.01348 ± 5.4e-05	0.01476 ± 5.9e-05	0.01606 ± 6.4e-05
m1 = 0.003432	–	0.007632 ± 3.1e-05	0.008706 ± 3.5e-05	0.009826 ± 3.9e-05	0.01099 ± 4.4e-05	0.0122 ± 4.9e-05	0.01344 ± 5.4e-05	0.01472 ± 5.9e-05	0.01601 ± 6.4e-05
m1 = 0.00406	–	0.007611 ± 3e-05	0.008682 ± 3.5e-05	0.0098 ± 3.9e-05	0.01097 ± 4.4e-05	0.01217 ± 4.9e-05	0.01341 ± 5.4e-05	0.01468 ± 5.9e-05	0.01596 ± 6.4e-05
m1 = 0.004815	–	0.007596 ± 3e-05	0.008665 ± 3.5e-05	0.00978 ± 3.9e-05	0.01094 ± 4.4e-05	0.01214 ± 4.9e-05	0.01338 ± 5.4e-05	0.01465 ± 5.9e-05	0.01593 ± 6.4e-05
m1 = 0.005831	997.346 ± 0.26	0.007573 ± 3e-05	0.008637 ± 3.5e-05	0.009748 ± 3.9e-05	0.01091 ± 4.4e-05	0.0121 ± 4.8e-05	0.01333 ± 5.3e-05	0.0146 ± 5.8e-05	0.01587 ± 6.3e-05
m1 = 0.1219	1002.91 ± 0.26	–	–	–	–	–	–	–	–
